Test system: PBMCs from HD or T1D patients
Assay: Quantification of IL-2 specific T cells by IFN-g ELISPOT
Format: cell-based, human
Conditions: peptides 10 μM/each; T1D patients (n=13) vs HD (n=14) PBMCs
Description: IFN-g production by PBMCs from HD (n=14, closed circles) or T1D patients (n=13, open circles) was quantified by ELISPOT after stimulation with hIL-2 or Proleukin (Pro) peptides (10 μM/each) that gave a positive response in the initial pool screening, intracellular IA-2, adenovirus lysate (AdV) or PHA.

EFLNRWITFSQSIIS (Synthetic fragment) [Pro116-130]
IFN-g production by PBMCs (ELISPOT, IFN-g spot-forming cells/10^6 PBMCs): can induce IFN-g production in a significantly higher frequency of T1D PBMCs compared to HD PBMCs

Reference: patent US10114018B2, “IL-2 peptide derivatives, and uses thereof for the diagnosis and treatment of an autoimmune disease” (INSERM (INSTITUT NATIONAL DE LA SANTÉ ET DE LA RECHERCHE …, priority 2014, dated 2018)
